Reference: patent publication US20240270821A1, “GIP/GLP1/GCG TRI-RECEPTOR AGONISTS AND USES THEREOF” (priority 2023, published 2024)
Like-named read-outs stand apart in the source and are kept apart here. Starred links: 1 amine or outer side, 2 acyl side, 3 side chain; linkers in the order of their positions; H or OH if unused. Non-standard residues stand in square brackets, D forms with d. Groups on a side chain read outwards from the residue. *: point of attachment. C20 diacid = O=C(O)CCCCCCCCCCCCCCCCCCC(=O)*; C18 diacid = O=C(O)CCCCCCCCCCCCCCCCC(=O)*; γGlu = O=C(O)[C@H](CCC(=O)[*:2])N[*:1]; αMe4Pal = C[C@](N)(Cc1ccncc1)C(=O)O; 4Pal = N[C@@H](Cc1ccncc1)C(=O)O; αMeL = CC(C)C[C@](C)(N)C(=O)O; Orn = NCCC[C@H](N)C(=O)O; Dap = NC[C@H](N)C(=O)O; AEEA = NCCOCCOCC(=O)O; Aib = CC(C)(N)C(=O)O

Tests used:
Assay type in all cases: cell-based
human GcgR = human GcgR (Homo sapiens, UniProt P47871); assay: Functional cAMP activity in the presence of 1% HSA
human GcgR, sequence (P47871 26-477): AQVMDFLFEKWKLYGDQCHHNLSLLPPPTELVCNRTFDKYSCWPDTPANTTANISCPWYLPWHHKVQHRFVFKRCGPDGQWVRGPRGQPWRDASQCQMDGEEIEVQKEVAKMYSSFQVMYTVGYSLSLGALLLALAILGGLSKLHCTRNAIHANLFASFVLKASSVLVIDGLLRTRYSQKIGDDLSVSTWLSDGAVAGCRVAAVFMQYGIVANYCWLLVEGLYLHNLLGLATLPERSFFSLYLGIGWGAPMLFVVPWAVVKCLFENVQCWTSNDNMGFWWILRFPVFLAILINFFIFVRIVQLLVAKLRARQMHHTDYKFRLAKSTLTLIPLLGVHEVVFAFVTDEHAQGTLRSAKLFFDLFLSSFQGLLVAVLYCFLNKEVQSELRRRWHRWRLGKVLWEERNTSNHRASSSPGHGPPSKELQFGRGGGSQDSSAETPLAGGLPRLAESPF

hGLP-1R [1] = target: T1, hGLP-1R (Homo sapiens, UniProt P43220); assay: Functional cAMP activation in the presence of 0.1% casein (no HSA);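 further: intracellular cAMP rise after 30 min at 37 °C read by HTRF, normalized between buffer only (0%) and maximal control ligand (100%), four-parameter variable-slope fit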
T1 sequence (P43220 24-463): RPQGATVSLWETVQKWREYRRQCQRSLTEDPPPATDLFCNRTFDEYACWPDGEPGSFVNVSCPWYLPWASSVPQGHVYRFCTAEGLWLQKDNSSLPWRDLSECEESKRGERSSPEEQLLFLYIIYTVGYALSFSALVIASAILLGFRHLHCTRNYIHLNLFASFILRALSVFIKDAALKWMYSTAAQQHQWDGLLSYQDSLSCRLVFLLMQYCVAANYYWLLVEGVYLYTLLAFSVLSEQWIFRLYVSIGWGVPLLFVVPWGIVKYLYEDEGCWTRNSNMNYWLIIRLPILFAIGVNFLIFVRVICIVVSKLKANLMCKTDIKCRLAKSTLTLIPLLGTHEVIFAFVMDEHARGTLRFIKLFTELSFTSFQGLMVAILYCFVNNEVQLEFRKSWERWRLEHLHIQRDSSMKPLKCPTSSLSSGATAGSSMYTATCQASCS

hGLP-1R [2] = target: T1, hGLP-1R; assay: Functional cAMP activity in the presence of 1% HSA
hGIPR [3] = target: T2, hGIPR (Homo sapiens, UniProt P48546); assay: Functional cAMP activation in the presence of 0.1% casein (no HSA);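 further: intracellular cAMP rise after 30 min at 37 °C read by HTRF against a standard curve, scaled between buffer alone (0%) and top control ligand concentration (100%), four-parameter fit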
T2 sequence (P48546 22-466): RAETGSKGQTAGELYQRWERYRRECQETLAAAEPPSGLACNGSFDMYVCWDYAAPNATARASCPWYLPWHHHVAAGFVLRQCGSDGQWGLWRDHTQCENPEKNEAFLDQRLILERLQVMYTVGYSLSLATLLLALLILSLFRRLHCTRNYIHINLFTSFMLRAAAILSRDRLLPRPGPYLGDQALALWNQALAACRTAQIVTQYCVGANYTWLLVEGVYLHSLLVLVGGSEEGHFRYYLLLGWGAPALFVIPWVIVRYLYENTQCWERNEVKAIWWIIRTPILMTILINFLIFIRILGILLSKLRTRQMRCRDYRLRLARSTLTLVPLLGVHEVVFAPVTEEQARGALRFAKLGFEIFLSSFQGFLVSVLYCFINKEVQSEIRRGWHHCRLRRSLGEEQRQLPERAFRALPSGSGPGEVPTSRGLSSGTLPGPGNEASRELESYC

hGIPR [4] = target: T2, hGIPR; assay: Functional cAMP activity in the presence of 1% HSA
human GLP1-R = human GLP1-R (Homo sapiens, UniProt P43220); assay: GLP1-R internalization assay in HEK293 cells; conditions: for Internalization % TOP: normalized to maximum concentration of GLP-1 (100%)
human GLP1-R, sequence (P43220 24-463): as the sequence (P43220 24-463) above

hGcgR = hGcgR (Homo sapiens, UniProt P47871); assay: Functional cAMP activation in the presence of 0.1% casein (no HSA);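 further: intracellular cAMP rise after 30 min at 37 °C, read by HTRF against a cAMP standard curve, scaled from buffer only (0%) to maximal control ligand response (100%)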
hGcgR, sequence (P47871 26-477): as the sequence (P47871 26-477) above

[5] = in the presence of 0.1% casein (no HSA), geometric mean, read-out: Relative cAMP EC50, hGLP-1R
[6] = read-out: cAMP Rel EC50, hGLP-1R
[7] = in the presence of 0.1% casein (no HSA), geometric mean, read-out: Relative cAMP EC50, hGIPR
[8] = HEK293 cells expressing SNAP-GLP-1R, read-out: GLP1R Internalization EC50
[9] = in the presence of 0.1% casein (no HSA), geometric mean, read-out: Relative cAMP EC50, hGcgR

Row | Substance | EC50 (human GcgR) [nM] | EC50 (hGLP-1R [1]) [nM] | EC50 (hGLP-1R [2]) [nM] | EC50 (hGIPR [3]) [nM] | EC50 (hGIPR [4]) [nM] | EC50 (human GLP1-R) [nM] | Internalization % TOP (human GLP1-R) [%] | EC50 (hGcgR) [nM] | EC50 (human GcgR; read-out: cAMP Rel EC50, hGcgR) [nM] | EC50 (hGLP-1R [1]; [5]) [nM] | EC50 (hGLP-1R [2]; [6]) [nM] | EC50 (hGIPR [3]; [7]) [nM] | EC50 (hGIPR [4]; read-out: cAMP Rel EC50, hGIPR) [nM] | EC50 (human GLP1-R; [8]) [nM] | EC50 (hGcgR; [9]) [nM]
1 | H-Y[Aib]QGTFTSDFSR[αMeL]LDKK([AEEA-γGlu-C18 diacid])AQ[αMe4Pal]AFIEYLIE[Aib]GESSGAPPPSGE-NH2 [Example 231] | 443 | 1.3 | 223 | 0.119 | 27.4 | 36.1 | 27.7 | 2.12 |  |  |  |  |  |  | 
2 | H-Y[Aib]QGTFTSDFSR[αMeL]LDKK([AEEA-γGlu-C20 diacid])AQ[Aib]AFIEYLLE[Aib]GPSSGAPPPGGS-NH2 [Example 42] | 1520 | 2.17 | 700 | 0.115 | 32.3 | 61.4 | 58.3 | 5.83 |  |  |  |  |  |  | 
3 | H-Y[Aib]QGTFTSDFS[Dap][αMeL]LDKK([AEEA-γGlu-C18 diacid])AQ[Aib]AFIEYLLEGGPSSGAPPPGGS-NH2 [Example 68] |  |  |  |  |  |  | 33.8 |  | 1160 | 3.07 | 612 | 0.46 | 85.1 | 95.2 | 8.55
4 | H-Y[Aib]QGTFTSDFS[Orn][αMeL]LDKK([AEEA-AEEA-γGlu-C18 diacid])AQ[Aib]AFIEYLLEGGPSSGAPPPGES-NH2 [Example 118] |  |  |  |  |  |  | 46.4 |  | 2460 | 6.03 | 1450 | 0.43 | 63.4 | 82.3 | 7.02
5 | H-Y[Aib]QGTFTSDFS[Orn][αMeL]LDKK([AEEA-AEEA-γGlu-C18 diacid])AQ[Aib]AFIEYLLEGGPSSGAPPPSGE-NH2 [Example 107] |  |  |  |  |  |  | 45.1 |  | 1690 | 8.5 | 1110 | 0.426 | 61.3 | 150 | 10.8
6 | H-Y[Aib]QGTFTSDFS[Orn][αMeL]LDKK([AEEA-AEEA-γGlu-C18 diacid])AQ[Aib]AFIEYLLE[Aib]GESSGAPPPSGS-NH2 [Example 179] |  |  |  |  |  |  | 48.4 |  | 1440 | 5.81 | 904 | 0.104 | 21.3 | 63.4 | 4.82
7 | H-Y[Aib]QGTFTSDFS[Orn][αMeL]LDKK([AEEA-AEEA-γGlu-C18 diacid])AQ[Aib]AFIEYLLE[Aib]GHSSGAPPPSGS-NH2 [Example 181] |  |  |  |  |  |  | 47.5 |  | 772 | 4.39 | 365 | 0.133 | 12.7 | 116 | 6.25
8 | H-Y[Aib]QGTFTSDFS[Orn][αMeL]LDKK([AEEA-AEEA-γGlu-C18 diacid])AQ[Aib]AFIEYLLE[Aib]GPSSGAPPPSGE-NH2 [Example 111] |  |  |  |  |  |  | 46.4 |  | 1260 | 5.06 | 878 | 0.0888 | 10.4 | 49.1 | 4.25
9 | H-Y[Aib]QGTFTSDFS[Orn][αMeL]LDKK([AEEA-AEEA-γGlu-C18 diacid])AQ[Aib]AFIEYLLE[Aib]GPSSGEPPPSGS-NH2 [Example 166] |  |  |  |  |  |  | 44.2 |  | 724 | 6.96 | 1500 | 0.118 | 21 | 74.6 | 3.82
10 | H-Y[Aib]QGTFTSDFS[Orn][αMeL]LDKK([AEEA-AEEA-γGlu-C18 diacid])AQ[Aib]AFIEYLLE[Aib]GPSSGEPPPSGT-NH2 [Example 167] |  |  |  |  |  |  | 44.7 |  | 938 | 6.19 | 1300 | 0.101 | 24.7 | 75.9 | 5.05
11 | H-Y[Aib]QGTFTSDFS[Orn][αMeL]LDKK([AEEA-AEEA-γGlu-C18 diacid])AQ[Aib]AFIEYLLE[Aib]G[4Pal]SSGAPPPSGS-NH2 [Example 183] |  |  |  |  |  |  | 45.4 |  | 504 | 5.03 | 295 | 0.0759 | 13.7 | 100 | 3.83
12 | H-Y[Aib]QGTFTSDFS[Orn][αMeL]LDKK([AEEA-AEEA-γGlu-C18 diacid])AQ[Aib]AFIEYLLE[dA]GPSSGEPPPSGE-NH2 [Example 117] |  |  |  |  |  |  | 51 |  | 867 | 6.4 | 524 | 0.267 | 29.9 | 45.5 | 4.75
13 | H-Y[Aib]QGTFTSDFS[Orn][αMeL]LDKK([AEEA-AEEA-γGlu-C18 diacid])AQ[Aib]AFIEYLLE[dA]GPSSGEPPPSGQ-NH2 [Example 157] |  |  |  |  |  |  | 53.3 |  | 838 | 3.04 | 496 | 0.183 | 22.2 | 60.3 | 4.16
14 | H-Y[Aib]QGTFTSDFS[Orn][αMeL]LDKK([AEEA-AEEA-γGlu-C18 diacid])AQ[Aib]AFIEYLLE[dA]GPSSGHPPPSGS-NH2 [Example 253] |  |  |  |  |  |  | 55.2 |  | 963 | 2.2 | 355 | 0.115 | 26.6 | 81.6 | 6.62
15 | H-Y[Aib]QGTFTSDFS[Orn][αMeL]LDKK([AEEA-AEEA-γGlu-C18 diacid])AQ[Aib]AFIEYLLE[dA]GPSSGHPPPSG[4Pal]-NH2 [Example 256] |  |  |  |  |  |  | 43.5 |  | 625 | 2.87 | 235 | 0.176 | 17.4 | 87.8 | 5.71
16 | H-Y[Aib]QGTFTSDFS[Orn][αMeL]LDKK([AEEA-AEEA-γGlu-C20 diacid])AQ[Aib]AFIEYLLE[Aib]GPSSGAPPPGEG-NH2 [Example 70] | 717 | 2.71 | 620 | 0.102 | 27.4 | 60 | 61.3 | 6.04 |  |  |  |  |  |  | 
17 | H-Y[Aib]QGTFTSDFS[Orn][αMeL]LDKK([AEEA-AEEA-γGlu-C20 diacid])AQ[Aib]AFIEYLLE[Aib]GPSSGAPPPSEG-NH2 [Example 71] |  |  |  |  |  |  | 68.6 |  | 2800 | 3.12 | 1010 | 0.105 | 48.1 | 58.8 | 8.74
18 | H-Y[Aib]QGTFTSDFS[Orn][αMeL]LDKK([AEEA-AEEA-γGlu-C20 diacid])AQ[Aib]AFIEYLLE[Aib]GPSSGEPPPGEG-NH2 [Example 69] |  |  |  |  |  |  | 58.2 |  | 387 | 3.25 | 279 | 0.136 | 25.6 | 71.9 | 4.75
19 | H-Y[Aib]QGTFTSDFS[Orn][αMeL]LDKK([AEEA-γGlu-C18 diacid])AQ[Aib]AFIEWLLEGGHSSGAPPPSGE-NH2 [Example 122] |  |  |  |  |  |  | 43.7 |  | 548 | 3.93 | 468 | 0.189 | 32.6 | 57.4 | 3.95
20 | H-Y[Aib]QGTFTSDFS[Orn][αMeL]LDKK([AEEA-γGlu-C18 diacid])AQ[Aib]AFIEWLLEGGHSSGAPPPSGT-NH2 [Example 171] |  |  |  |  |  |  | 36.1 |  | 502 | 2.89 | 287 | 0.2 | 27.1 | 61.4 | 3.86
21 | H-Y[Aib]QGTFTSDFS[Orn][αMeL]LDKK([AEEA-γGlu-C18 diacid])AQ[Aib]AFIEWLLEGGPSSGAPPPSGS-NH2 [Example 168] |  |  |  |  |  |  | 38.7 |  | 1270 | 2.44 | 281 | 0.233 | 31.9 | 74.8 | 5.54
22 | H-Y[Aib]QGTFTSDFS[Orn][αMeL]LDKK([AEEA-γGlu-C18 diacid])AQ[Aib]AFIEWLLEGGSSSGAPPPSGE-NH2 [Example 172] |  |  |  |  |  |  | 41.4 |  | 605 | 3.5 | 457 | 0.174 | 29.3 | 121 | 3.38
23 | H-Y[Aib]QGTFTSDFS[Orn][αMeL]LDKK([AEEA-γGlu-C18 diacid])AQ[Aib]AFIEWLLEGGSSSGAPPPSGS-NH2 [Example 173] |  |  |  |  |  |  | 38.6 |  | 745 | 2.32 | 293 | 0.168 | 49.9 | 97.1 | 3.6
